Data from patent publication US20240383870A1, “HETEROCYCLIC ALDEHYDE TRAPPING COMPOUNDS AND USES THEREOF” (Aldeyra Therapeutics, Inc., priority 2021, published 2024).

Key:
Assay type in all cases: in vivo
[1] = tested on: IL-6; test: Acute LPS-induced sepsis in C57BL/6 mice: IL-6 cytokine detection assay; conditions: 200 mpk PO; LPS-challenged mice, plasma at 6.5 h; unpaired t-test vs vehicle
From the text: FIG. 11 is a graph showing the results of an IL-6 cytokine detection assay in samples collected from mouse subjects after administration of compounds of the present disclosure.
(§1) The primary objective of this study was to collect plasma samples of lipopolysaccharide (LPS) challenged C57BL/6 mice after dose of test compounds to provide a cytokine profile as impacted by prophylactic treatments. This study models acute sepsis, which is a systemic inflammatory syndrome initiated by Gram-negative and Gram-positive bacteria and fungi which infect the lungs, abdomen, bloodstream, and renal or genitourinary tracts. Sepsis patients ultimately die of multiorgan failure which is caused by extensive tissue hypo-oxygenation due to ongoing microvascular leakage, disseminated intravascular coagulation, compromised energy production, and metabolic alterations. Sepsis is characterized by an early systemic inflammatory response phase featuring symptoms, such as tachycardia, fever, hyperventilation, and activation of the complement and coagulation cascades. However, it is now appreciated that a compensatory anti-inflammatory response phase follows, characterized by neuroendocrine-mediated immunosuppression. Since these processes are the result of interaction between cells of inflammation and organs, investigation of the treatment of this syndrome requires the use of intact animal models. The use of ten mice per group allows useful statistical modelling of the results.
(§2) For the data shown in Table 2A, 103 mice (female, 18-22 gram, C57BL/6) were purchased from ENVIGO. The mice were housed in 20 cages of 5 mice per cage with 1 cage of 3 mice as extra. The cages had filter tops and autoclaved bedding, and the animals were placed in quarantine with daily inspection. The treatment groups are detailed in Table 2A below. 10 mice were included in each group. The mice were dosed by oral gavage (PO) at 10 ml/kg as per the table below. MC=methyl cellulose.
as §2, with “2B, 185” for “2A, 103”, “37” for “20”, “cage.” for “cage with 1 cage of 3 mice as extra.”, “2B” for “2A”, “(P0)” for “(PO)”
(§3) At T=0 h, the mice were dosed with one of the test compounds as described in the above table.
(§4) At T=0.5 h, the mice were injected IP with 1.5 mg/kg […] (Sigma).
(§5) At T=6.5 h, all mice were anesthetized and exsanguinated into pre-chilled EDTA-treated tubes. […]
(§6) A 32-plex cytokine panel was obtained from Eve Technologies. Each cytokine was assessed based against a 7 point curve range in duplicate. […]

[2] = tested on: KC; test: Acute LPS-induced sepsis in C57BL/6 mice: KC cytokine detection assay; conditions: 200 mpk PO; LPS-challenged mice, plasma at 6.5 h; unpaired t-test vs vehicle
From the text: FIG. 20 is a graph showing the results of a KC cytokine detection assay in samples collected from mouse subjects after administration of compounds of the present disclosure.
as §1, §2
as §2, with “2B, 185” for “2A, 103”, “37” for “20”, “cage.” for “cage with 1 cage of 3 mice as extra.”, “2B” for “2A”, “(P0)” for “(PO)”
as §3, §4
(§7) At T=6.5 h, all mice were anesthetized and exsanguinated into pre-chilled EDTA-treated tubes. The blood was processed to plasma which was stored in labeled 0.5 polypropylene snap-cap tubes (0.5 mL Eppendorf Safe-Lock Tubes (Fisher Scientific) at −80° C.
(§8) Preparation of vehicle: 1.0 gram of methyl cellulose (Sigma) was dissolved in 200 mL of water (USP purified) to make a solution of 0.5% methyl cellulose in water. Preparation of LPS solution: 6 mg of LPS (from Escherichia Coli 055:B5, Cat #L2880, Sigma Lot #057m4013) was dissolved in 20 ml of saline to give a LPS solution of 0.3 mg/ml. All mice were injected with 5 ml/kg (1.5 mg/kg) at the scheduled time by intraperitoneal injection.
(§9) A 32-plex cytokine panel was obtained from Eve Technologies. Each cytokine was assessed based against a 7 point curve range in duplicate. The average of the two replicate analyses was used for statistics. Unpaired t-tests were performed using Excel™ contrasting vehicle against each treatment group. One star indicates P<0.05. Two stars indicates P<0.01. Three stars indicates P<0.001. Four stars indicates P<0.0001. Most, but not all, statistically significant results are indicated with star(s).

[3] = tested on: MCP-1(CCL2); test: Acute LPS-induced sepsis in C57BL/6 mice: MCP-1(CCL2) cytokine detection assay; conditions: 200 mpk PO; LPS-challenged mice, plasma at 6.5 h; unpaired t-test vs vehicle
[4] = tested on: M-CSF (CSF1); test: Acute LPS-induced sepsis in C57BL/6 mice: M-CSF (CSF1) cytokine detection assay; conditions: LPS-challenged mice, plasma at 6.5 h, unpaired t-test vs vehicle
From the text: FIG. 24 is a graph showing the results of an M-CSF (CSF1) cytokine detection assay in samples collected from mouse subjects after administration of compounds of the present disclosure. M-CSF causes hematopoietic stem cells to differentiate into macrophages.
as §1, §2
as §2, with “2B, 185” for “2A, 103”, “37” for “20”, “cage.” for “cage with 1 cage of 3 mice as extra.”, “2B” for “2A”, “(P0)” for “(PO)”
as §3, §4, §7, §8, §9

[5] = tested on: TNFα; test: Acute LPS-induced sepsis in C57BL/6 mice: TNFα cytokine detection assay; conditions: 200 mpk PO; LPS-challenged mice, plasma at 6.5 h; unpaired t-test vs vehicle
From the text: FIG. 29 is a graph showing the results of a TNFα cytokine detection assay in samples collected from mouse subjects after administration of compounds of the present disclosure.
as §1
as §2, with “cellulose. […]” for “cellulose.”
as §6

[6] = tested on: IL-10; test: Acute LPS-induced sepsis in C57BL/6 mice: IL-10 cytokine detection assay; conditions: 200 mpk PO; LPS-challenged mice, plasma at 6.5 h; unpaired t-test vs vehicle
[7] = tested on: IL-12(p70); test: Acute LPS-induced sepsis in C57BL/6 mice: IL-12(p70) cytokine detection assay; conditions: 200 mpk PO; LPS-challenged mice, plasma at 6.5 h; unpaired t-test vs vehicle
From the text: FIG. 16 is a graph showing the results of an IL-12(p70) cytokine detection assay in samples collected from mouse subjects after administration of compounds of the present disclosure.
as §1
as §2, with “The mice were dosed by oral gavage (PO) at 10 ml/kg as per the table below.” left out
as §2, with “2B, 185” for “2A, 103”, “37” for “20”, “cage.” for “cage with 1 cage of 3 mice as extra.”, “2B” for “2A”, “(P0)” for “(PO)”
as §3, §4, §7, §8
A 32-plex cytokine panel was obtained from Eve Technologies. Each cytokine was assessed based against a 7 point curve range in duplicate. The average of the two replicate analyses was used for statistics. Unpaired t-tests were performed using Excel™ contrasting vehicle against each treatment group. One star indicates P<0.05. […]

[8] = tested on: IL-13; test: Acute LPS-induced sepsis in C57BL/6 mice: IL-13 cytokine detection assay; conditions: 200 mpk PO; LPS-challenged mice, plasma at 6.5 h; unpaired t-test vs vehicle
From the text: FIG. 17 is a graph showing the results of an IL-13 cytokine detection assay in samples collected from mouse subjects after administration of compounds of the present disclosure.
as §1, §2
as §2, with “2B, 185” for “2A, 103”, “37” for “20”, “cage.” for “cage with 1 cage of 3 mice as extra.”, “2B” for “2A”, “(P0)” for “(PO)”
as §3, §4, §7, §8
A 32-plex cytokine panel was obtained from Eve Technologies. Each cytokine was assessed based against a 7 point curve range in duplicate. The average of the two replicate analyses was used for statistics. […]

[9] = tested on: eotaxin; test: Acute LPS-induced sepsis in C57BL/6 mice: eotaxin cytokine detection assay; conditions: 200 mpk PO; LPS-challenged mice, plasma at 6.5 h; unpaired t-test vs vehicle
[10] = tested on: IL-7; test: Acute LPS-induced sepsis in C57BL/6 mice: IL-7 cytokine detection assay; conditions: 200 mpk PO; LPS-challenged mice, plasma at 6.5 h; unpaired t-test vs vehicle
[11] = tested on: IL-15; test: Acute LPS-induced sepsis in C57BL/6 mice: IL-15 cytokine detection assay; conditions: 200 mpk PO; LPS-challenged mice, plasma at 6.5 h; unpaired t-test vs vehicle
[12] = tested on: IL-17; test: Acute LPS-induced sepsis in C57BL/6 mice: IL-17 cytokine detection assay; conditions: 200 mpk PO; LPS-challenged mice, plasma at 6.5 h; unpaired t-test vs vehicle
From the text: FIG. 19 is a graph showing the results of an IL-17 cytokine detection assay in samples collected from mouse subjects after administration of compounds of the present disclosure.
as §1
as §2, with “The mice were dosed by oral gavage (PO) at 10 ml/kg as per the table below.” left out
as §2, with “2B, 185” for “2A, 103”, “37” for “20”, “cage.” for “cage with 1 cage of 3 mice as extra.”, “2B” for “2A”, “(P0)” for “(PO)”
as §3, §4, §5, §6

[13] = tested on: leukemia inhibitory factor (LIF); test: Acute LPS-induced sepsis in C57BL/6 mice: leukemia inhibitory factor (LIF) cytokine detection assay; conditions: 200 mpk PO; LPS-challenged mice, plasma at 6.5 h; unpaired t-test vs vehicle
From the text: FIG. 21 is a graph showing the results of a leukemia inhibitory factor (LIF) cytokine detection assay in samples collected from mouse subjects after administration of compounds of the present disclosure. LIF is an interleukin 6 class cytokine that affects cell growth by inhibiting differentiation.
as §1, §2
as §2, with “2B, 185” for “2A, 103”, “37” for “20”, “cage.” for “cage with 1 cage of 3 mice as extra.”, “2B” for “2A”, “(P0)” for “(PO)”
as §3, §4, §7, §8, §6

[14] = tested on: MIP2(CXCL2); test: Acute LPS-induced sepsis in C57BL/6 mice: MIP2(CXCL2) cytokine detection assay; conditions: 200 mpk PO; LPS-challenged mice, plasma at 6.5 h; unpaired t-test vs vehicle
From the text: FIG. 27 is a graph showing the results of a MIP2(CXCL2) cytokine detection assay in samples collected from mouse subjects after administration of compounds of the present disclosure.
as §1
as §2, with “The mice were dosed by oral gavage (PO) at 10 ml/kg as per the table below.” left out
as §2, with “2B, 185” for “2A, 103”, “37” for “20”, “cage.” for “cage with 1 cage of 3 mice as extra.”, “2B” for “2A”, “(P0)” for “(PO)”
as §3, §4, §5, §6

[15] = tested on: IL-9; test: Acute LPS-induced sepsis in C57BL/6 mice: IL-9 cytokine detection assay; conditions: 125 mpk PO; LPS-challenged mice, plasma at 6.5 h; unpaired t-test vs vehicle
From the text: FIG. 13 is a graph showing the results of an IL-9 cytokine detection assay in samples collected from mouse subjects after administration of compounds of the present disclosure.
as §1
as §2, with “cellulose. […]” for “cellulose.”
as §6

Compound	IL-6: significant cytokine change vs. vehicle [1]	KC: significant cytokine change vs. vehicle [2]	MCP-1: significant cytokine change vs. vehicle [3]	M-CSF: significant cytokine change vs. vehicle ([4]; 200 mpk PO)	TNFa: significant cytokine change vs. vehicle [5]	IL-13: significant cytokine change vs. vehicle [8]	other results
COc1ccc2c(c1)NC(=O)[C@@H](CO)N2 [Compound I-7, (R)-3-(Hydroxymethyl)-7-methoxy-3,4-dihydroquinoxalin-2(1H)-one]	* (One star indicates P<0.05)	* (One star indicates P<0.05)	* (One star indicates P<0.05)	*** (Three stars indicates P<0.001)	* (One star indicates P<0.05)		
CC(C)(O)c1cc(Cl)c(Cl)cc1N [Compound I-28, 2-(2-Amino-4,5-dichlorophenyl) propan-2-ol]		*** (Three stars indicates P<0.001)	* (One star indicates P<0.05)			* (One star indicates P<0.05)	IL-10: significant cytokine change vs. vehicle [6]: * (One star indicates P<0.05); IL-12 (p70): significant cytokine change vs. vehicle [7]: * (One star indicates P<0.05)
CC(C)(O)c1cc2occc2cc1N [Compound I-22, 2-(5-Aminobenzofuran-6-yl) propan-2-ol]							M-CSF: significant cytokine change vs. vehicle ([4]; 100 mpk PO): ** (Two stars indicates P<0.01)
CC(C)(O)c1ncc(C(F)(F)F)cc1N [Compound I-24, 2-(3-Amino-5-(trifluoromethyl)pyridin-2-yl) propan-2-ol]				* (One star indicates P<0.05)			
CC(O)(c1sc2cccc(Br)c2c1N)C(F)(F)F (stereo not drawn) [Compound I-2, 2-(3-amino-4-bromobenzo[b]thiophen-2-yl)-1,1,1-trifluoropropan-2-ol]	**** (Four stars indicates P<0.0001)	*** (Three stars indicates P<0.001)	*** (Three stars indicates P<0.001)		**** (Four stars indicates P<0.0001)	**** (Four stars indicates P<0.0001)	Eotaxin: significant cytokine change vs. vehicle [9]: ** (Two stars indicates P<0.01); IL-7: significant cytokine change vs. vehicle [10]: ** (Two stars indicates P<0.01); IL-15: significant cytokine change vs. vehicle [11]: ** (Two stars indicates P<0.01); IL-17: significant cytokine change vs. vehicle [12]: *** (Three stars indicates P<0.001); LIF: significant cytokine change vs. vehicle [13]: ** (Two stars indicates P<0.01); MIP-2: significant cytokine change vs. vehicle [14]: *** (Three stars indicates P<0.001)
CC(C)(O)c1cc2c(cc1N)OCCO2 [Compound I-26, 2-(7-Amino-2,3-dihydrobenzo[b] [1,4]dioxin-6-yl) propan-2-ol]							IL-9: significant cytokine change vs. vehicle [15]: * (One star indicates P<0.05)
